Assay results published in ChEMBL document CHEMBL1124229, “Spiro hydantoin aldose reductase inhibitors” (J Med Chem, 1988).

Columns and labels:
[1] = species: Rattus norvegicus; experiment: Ability to cause 50% reduction in sorbitol levels of sciatic nerve of streptozotocinized rats was determined; format: functional; conditions: Rattus norvegicus, Sciatic nerve; read-out: ED50
[2] = target: T1, Aldo-keto reductase family 1 member B1 (Bos taurus, UniProt P16116); experiment: In vitro inhibition of partially purified calf lens aldose reductase
[3] = target: T1, Aldo-keto reductase family 1 member B1; experiment: In vitro inhibitory activity towards partially purified calf lens aldose reductase; value ranges from 10E-6 - 10E-7
[4] = target: T1, Aldo-keto reductase family 1 member B1; experiment: In vitro inhibition of partially purified calf lens aldose reductase; value ranges from 10E-5 to 10E-6
[5] = target: T1, Aldo-keto reductase family 1 member B1; experiment: Inhibition of partially purified calf lens aldose reductase; value ranges from 10E-4 to 10e-5 M
[6] = pKa in DMF/H2O was measured; format: physicochemical
[7] = species: Rattus norvegicus; experiment: Dose causing 50% reduction in sorbitol accumulation in sciatic nerves of streptozotocinized rats, (tid)
[8] = species: Rattus norvegicus; experiment: 50% reduction in sorbitol accumulation in isolated sciatic nerves incubated in the presence of high glucose concentration; format: functional; conditions: Sciatic nerve

Row | SMILES | ED50 [1] | IC50 [2] | also measured
1 | O=C1NC(=O)C2(CCCc3ccccc32)O1 (configuration not stated) | > 50 mg/kg | 10 µM | –
2 | O=C1NC(=O)C2(CCSc3ccc(Cl)cc32)N1 (configuration not stated) | 2.5 mg/kg | – | IC50 [3]: 1 µM
3 | O=C1NC(=O)C2(CCOc3c(Cl)cc(Cl)cc32)N1 (configuration not stated) | 0.25 mg/kg | < 0.1 µM | –
4 | O=C1NC(=O)C2(CCCC2c2ccccc2)N1 (configuration not stated) | > 25 mg/kg | > 100 µM | –
5 | O=C1NC(=O)C2(CCSc3c(Cl)cc(Cl)cc32)N1 (configuration not stated) | – | < 0.1 µM | –
6 | O=C1NC(=O)C2(CCOc3c(F)cccc32)N1 (configuration not stated) | – | < 100 µM | –
7 | O=C1NC(=O)C2(CCC(C(=O)O)c3ccccc32)N1 (configuration not stated) | – | > 100 µM | –
8 | COc1cccc2c3c(ccc12)C1(CCO3)NC(=O)NC1=O (configuration not stated) | > 1.5 mg/kg | 0.1 µM | –
9 | O=C1NC(=O)C2(CCC(c3ccccc3)c3ccccc32)N1 (configuration not stated) | > 25 mg/kg | – | –
10 | O=C1NC(=O)C2(CCCc3sccc32)N1 (configuration not stated) | 25 mg/kg | 100 µM | –
11 | O=C1NC(=O)C2(CCSc3cc(Cl)ccc32)N1 (configuration not stated) | > 1.5 mg/kg | 1 µM | –
12 | O=C1NC(=O)C2(CCc3cc4c(cc32)OCO4)N1 (configuration not stated) | > 5 mg/kg | – | IC50 [4]: 10 µM
13 | O=C1NC(=O)C2(CCOc3c2ccc2ccccc32)N1 (configuration not stated) | > 1.5 mg/kg | < 100 µM | –
14 | Cc1cc(C)c2c(c1C)OCCC21NC(=O)NC1=O (configuration not stated) | – | 1 µM | –
15 | Cc1cc2c(n1C)CCCC21NC(=O)NC1=O (configuration not stated) | > 25 mg/kg | > 100 µM | –
16 | O=C1NC(=O)C2(CCOc3ccccc32)N1 (configuration not stated) | 5 mg/kg | 10 µM | –
17 | O=C1CC2(CCc3ccccc32)C(=O)N1 (configuration not stated) | > 2.5 mg/kg | > 100 µM | –
18 | O=C1NCNC12CCCc1ccccc12 (configuration not stated) | 25 mg/kg | > 100 µM | –
19 | O=C1NC(=O)C2(CCSc3ccc(Br)cc32)N1 (configuration not stated) | 2.5 mg/kg | – | IC50 [3]: 1 µM
20 | O=C1N=C(O)O[C@@]12CCOc1ccc(Cl)cc12 | – | – | IC50 [5]: 100 µM
21 | O=C(O)C1CCSc2cc(Cl)c(Cl)cc21 (configuration not stated) | – | 10 µM | –
22 | COc1cc2c(c(OC)c1OC)C1(CC2)NC(=O)NC1=O (configuration not stated) | – | 100 µM | –
23 | COc1ccc(Cl)c2c1CCCC21NC(=O)NC1=O (configuration not stated) | > 25 mg/kg | > 100 µM | –
24 | O=C1NC(=O)C2(CCOc3ccc(Cl)cc32)O1 (configuration not stated) | > 1.5 mg/kg | – | –
25 | O=C1NC(=O)C2(CCc3ccccc32)O1 (configuration not stated) | > 25 mg/kg | – | –
26 | O=C1NC(=O)C2(CCCCc3ccccc32)N1 (configuration not stated) | > 25 mg/kg | > 100 µM | –
27 | O=C1NC(=O)C2(CCc3ccc(O)cc32)N1 (configuration not stated) | > 10 mg/kg | – | IC50 [5]: 100 µM

Row | SMILES | ED50 [1] | IC50 [2] | also measured
28 | O=C1NC(=O)C2(CCOc3c(-c4ccccc4)cccc32)N1 (configuration not stated) | 10 mg/kg | – | –
29 | COc1ccc2c(c1)C1(CCS2)NC(=O)NC1=O (configuration not stated) | > 5 mg/kg | 10 µM | –
30 | O=C1NC(=O)C2(CCSc3c(Cl)cccc32)N1 (configuration not stated) | > 1.5 mg/kg | 100 µM | –
31 | O=C1NC(=O)C2(CCOc3ccc(-c4ccccc4)cc32)N1 (configuration not stated) | > 1.5 mg/kg | < 100 µM | –
32 | O=C1NCC2(CCc3ccccc32)N1 (configuration not stated) | – | > 100 µM | –
33 | O=C1NC(=O)C2(CCSc3c(Cl)ccc(Cl)c32)N1 (configuration not stated) | – | > 100 µM | –
34 | O=C1NC(=O)C2(CCn3c(=O)ccc4cc(Cl)cc2c43)N1 (configuration not stated) | > 1.5 mg/kg | < 0.1 µM | –
35 | O=C1NC(=O)[C@]2(CCSc3ccc(F)cc32)N1 | – | – | IC50 [4]: 10 µM
36 | COc1ccc(Cl)cc1C1(C)NC(=O)NC1=O (configuration not stated) | – | > 100 µM | –
37 | O=C1NC(=O)C2(CCOc3cc(Cl)c(Cl)cc32)N1 (configuration not stated) | < 1.5 mg/kg | < 0.1 µM | –
38 | NC(=O)NC(=O)C1CCc2ccccc21 (configuration not stated) | > 10 mg/kg | 100 µM | –
39 | CC1CCc2ccccc2C12NC(=O)NC2=O (configuration not stated) | > 25 mg/kg | 100 µM | –
40 | O=C1NC(=O)C2(CCCc3occc32)N1 (configuration not stated) | 25 mg/kg | – | –
41 | O=C1NC(=O)C2(CCCC3CCCCC32)N1 (configuration not stated) | < 25 mg/kg | > 100 µM | –
42 | CC(C)(C)c1ccc2c(c1)C1(CCO2)NC(=O)NC1=O (configuration not stated) | – | – | IC50 [5]: 100 µM
43 | Cc1ccc(C)c2c1OCCC21NC(=O)NC1=O (configuration not stated) | > 1.5 mg/kg | 1 µM | –
44 | O=C1NC(=O)C2(CCOc3ccc(Cl)cc32)C(=O)N1 | > 10 mg/kg | – | IC50 [5]: 100 µM
45 | O=C1NC(=O)C2(N1)c1ccccc1CCC2c1ccccc1 (configuration not stated) | > 25 mg/kg | > 100 µM | –
46 | O=C1NC(=O)C2(CCSc3ccc(F)cc32)N1 (configuration not stated) | 1.5 mg/kg | – | IC50 [3]: 1 µM
47 | Cc1cc(Cl)cc2c1OCCC21NC(=O)NC1=O (configuration not stated) | < 1.5 mg/kg | < 0.1 µM | –
48 | O=C1NCC2(CCOc3ccc(Cl)cc32)N1 (configuration not stated) | > 10 mg/kg | 10 µM | –
49 | CC1CCC2(NC(=O)NC2=O)c2ccccc21 (configuration not stated) | > 25 mg/kg | 100 µM | –
50 | O=C1NC(=O)C2(CCOc3c2ccc2cccnc32)N1 (configuration not stated) | > 1.5 mg/kg | 10 µM | –
51 | COc1ccc2c(c1)CCC21NC(=O)NC1=O (configuration not stated) | > 25 mg/kg | 10 µM | –
52 | O=C1NC(=O)[C@@]2(CCOc3ccc(Cl)cc32)O1 | 2.5 mg/kg | 0.1 µM | pKa [6]: 5.6; ED50 [7]: 1e-05 M/kg; IC50 [8]: 10 µM
53 | CSc1ccc2c(c1)C1(CCO2)NC(=O)NC1=O (configuration not stated) | < 25 mg/kg | 1 µM | –
